Results taken from patent publication US9296759B2, “Amino-oxazine and amino-dihydrothiazine compounds as beta-secretase modulators and methods of use” (AMGEN INC., priority 2011, dated 2016).
Where two headings read alike, the source gives them in different places.

Key:
[1] = tested on: Aβ40 in conditioned medium of cells stably expressing Amyloid Precursor Protein (APP); test: In vitro BACE cell-based assay (HEK cell assay, Aβ40 sandwich ELISA); conditions: Homo sapiens, HEK293; average IC50, Aβ40, 24 h incubation
Procedure, shortened: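 Secreted Aβ40 was quantified by sandwich ELISA (pAb40 capture, biotinylated 6E10 detection, Europium time-resolved fluorescence). IC50 derived from percent inhibition versus concentration.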

[2] = target: Cathepsin D (Homo sapiens (Human), UniProt P07339); test: In vitro enzymatic Cat D (Cathepsin D) FRET assay; type: biochemical; conditions: average IC50
Chain of Cathepsin D (P07339 65-412, species assumed): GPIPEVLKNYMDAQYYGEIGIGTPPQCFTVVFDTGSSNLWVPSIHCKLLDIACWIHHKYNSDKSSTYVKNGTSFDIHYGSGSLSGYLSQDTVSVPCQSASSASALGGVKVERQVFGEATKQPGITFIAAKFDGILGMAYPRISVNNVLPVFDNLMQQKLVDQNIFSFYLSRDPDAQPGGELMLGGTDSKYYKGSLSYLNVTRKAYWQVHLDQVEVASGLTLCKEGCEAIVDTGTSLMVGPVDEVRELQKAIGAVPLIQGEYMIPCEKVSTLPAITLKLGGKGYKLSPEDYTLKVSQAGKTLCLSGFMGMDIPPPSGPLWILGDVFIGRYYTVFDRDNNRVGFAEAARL
Procedure, shortened: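 CHO-expressed recombinant enzyme in 0.05 M citrate pH 3.5, 5 mM CHAPS, 10% DMSO final; reaction started with 20 nM quenched-peptide FRET substrate (cleavage site spanned by fluorophore/quencher), 1 h incubation.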

[3] = target: BACE 1 (beta secretase enzyme) (Homo sapiens (Human), UniProt P56817); test: In vitro enzymatic BACE FRET assay; type: biochemical; conditions: average IC50
Chain of BACE 1 (beta secretase enzyme) (P56817 46-501): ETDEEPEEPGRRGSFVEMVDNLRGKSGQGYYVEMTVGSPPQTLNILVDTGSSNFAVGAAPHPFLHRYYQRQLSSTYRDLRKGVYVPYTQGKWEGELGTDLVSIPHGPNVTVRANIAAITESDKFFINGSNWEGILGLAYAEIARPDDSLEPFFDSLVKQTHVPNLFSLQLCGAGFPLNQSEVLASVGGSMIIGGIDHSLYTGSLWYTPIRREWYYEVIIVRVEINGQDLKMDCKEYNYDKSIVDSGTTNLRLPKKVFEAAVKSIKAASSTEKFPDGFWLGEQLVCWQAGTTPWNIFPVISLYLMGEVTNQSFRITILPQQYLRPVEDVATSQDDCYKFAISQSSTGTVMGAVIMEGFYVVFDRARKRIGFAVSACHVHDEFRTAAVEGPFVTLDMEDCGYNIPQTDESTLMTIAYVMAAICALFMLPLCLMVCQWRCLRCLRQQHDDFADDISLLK
Procedure, shortened: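 The enzyme was tested in 0.05 M acetate, pH 4.2, with 10% DMSO final and 100 uM genapol. The reaction was started with 50 nM quenched FRET peptide substrate, incubated one hour and stopped with Tris to neutral pH. Cleavage was read as fluorescence ([…]).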

[4] = tested on: Abeta 40; test: In vivo inhibition of beta-secretase: Abeta 40 reduction in CSF and brain of the rat; conditions: 10 mpk, after 4 hrs
Description: In Vivo Inhibition of Beta-Secretase
Several animal models, including mouse, rat, dog, and monkey, may be used to screen for inhibition of beta-secretase activity in vivo following administration of a test compound sample. Animals used in this invention can be wild type, transgenic, or gene knockout animals. For example, the Tg2576 mouse model, prepared and conducted as described in Hsiao et al., 1996, Science 274, 99-102, and other non-transgenic or gene knockout animals are useful to analyze in vivo inhibition of Amyloid beta peptide (Abeta) production in the presence of inhibitory test compounds. Generally, 2 to 18 month old Tg2576 mice, gene knockout mice or non-transgenic animals are administered test compounds formulated in vehicles, such as cyclodextran, phosphate buffers, hydroxypropyl methylcellulose or other suitable vehicles. One to twenty-four hours following the administration of compound, animals are sacrificed, and brains as well as cerebrospinal fluid (CSF) and plasma are removed for analysis of A-beta levels and drug or test compound concentrations (Dovey et al., 2001, Journal of Neurochemistry, 76, 173-181) Beginning at time 0, animals are administered by oral gavage, or other means of delivery such as intravenous injection, an inhibitory test compound of up to 100 mg/kg in a standard, conventional formulation, such as 2% hydroxypropyl methylcellulose, 1% Tween80. A separate group of animals receive 2% hydroxypropyl methylcellulose, 1% Tween80 alone, containing no test compound, and serve as a vehicle-control group. At the end of the test period, animals are sacrificed and brain tissues, plasma or cerebrospinal fluid are collected. Brains are either homogenized in 10 volumes (w/v) of 0.2% diethylamine (DEA) in 50 mM NaCl (Best et al., 2005, Journal of Pharmacology and Experimental Therapeutics, 313, 902-908), or in 10 volumes of 0.5% TritonX-100 in Tris-buffered saline (pH at about 7.6). Homogenates are centrifuged at 355,000 g, 4° C. for 30 minutes. CSF or brain supernatants are then analyzed for the presence of A-beta peptide by specific sandwich ELISA assays based on ECL (Electrochemiluminescence) technology. For example, rat Abeta40 is measured using biotinylated-4G8 (Signet) as a capture antibody and Fab40 (an in-house antibody specific to the C-terminal of Abeta40) as a detection antibody. For example, 4 hours after administration of 30 mg/kg oral dose of the test compound in 2% hydroxypropyl methylcellulose, 1% Tween80 (pH2.2) to 200 g male Sprague Dawley rats, amyloid beta peptide levels are measured for reduction by X % and Y % in cerebrospinal fluid and brain, respectively, when compared to the levels measured in the vehicle-treated rats.
• Oral: 2% HPMC, 1% Tween80, pH 2.2 • IV: 5% EtOH, 45% Propylene glycol in 5% Dextrose
The compounds of the invention may be shown to reduce the formation and/or deposition of amyloid beta peptide in the cerebrospinal fluid (CSF) as well as in the brain of a mouse or rat at either 3 mpk, 10 mpk or 30 mpk (mpk=mg compound per kg weight of the animal) dosing concentrations after 4 hrs.

[5] = Abeta 40, rat CSF, read-out: % reduction of rat CSF levels at 10 pmk
[6] = Abeta 40, rat brain, read-out: % reduction of rat brain levels at 10 mpk

IC50 [1] [nM]	IC50 [2] [nM]	IC50 [3] [nM]	Compound	inhibition in vivo at 10 mg/kg [4, 5] [%]	inhibition in vivo at 10 mg/kg [4, 6] [%]
0.051	400000	0.9	COc1cnc(C(=O)Nc2ccc3c(c2)[C@@]2(CCOC(N)=N2)c2cc(C4=CCOCC4)nc(F)c2O3)cn1 [Example 65, N-((5S)-2′-amino-3-(3,6-dihydro-2H-pyran-4-yl)-1-fluoro-5′,6′-dihydrospiro[chromeno[2,3-c]pyridine-5,4′-[1,3]oxazin]-7-yl)-5-methoxy-2-pyrazinecarboxamide]	83	71
0.5	> 400000	2	NC1=N[C@@]2(CCO1)c1cc(NC(=O)c3ccc(Cl)cn3)ccc1Oc1c2cc(C2=CCCOC2)nc1F [Example 39, N-((5S)-2′-amino-3-(5,6-dihydro-2H-pyran-3-yl)-1-fluoro-5′,6′-dihydrospiro[chromeno[2,3-c]pyridine-5,4′-[1,3]oxazin]-7-yl)-5-chloro-2-pyridinecarboxamide]	85	80
0.5	217000	0.8	NC1=N[C@@]2(CCS1)c1cc(NC(=O)c3ccc(Cl)cn3)ccc1Oc1c2cc(C2=CCCOC2)nc1F [Example 68, N-((5S)-2′-amino-3-(5,6-dihydro-2H-pyran-3-yl)-1-fluoro-5′,6′-dihydrospiro[chromeno[2,3-c]pyridine-5,4′-[1,3]thiazin]-7-yl)-5-chloro-2-pyridinecarboxamide]	77	73
0.1	313000	0.9	COc1ccc(C(=O)Nc2ccc3c(c2)[C@@]2(CCOC(N)=N2)c2cc(C4=CCCOC4)nc(F)c2O3)nc1 [Example 84, N-((5S)-2′-amino-3-(5,6-dihydro-2H-pyran-3-yl)-1-fluoro-5′,6′-dihydrospiro[chromeno[2,3-c]pyridine-5,4′-[1,3]oxazin]-7-yl)-5-methoxy-2-pyridinecarboxamide]	83	71
1.1	–	9.4	COc1cnc(C(=O)Nc2ccc3c(c2)[C@@]2(CCOC(N)=N2)c2cc(C4=CCCOC4)ncc2O3)cn1 [Example 58, N-((5S)-2′-amino-3-(5,6-dihydro-2H-pyran-3-yl)-5′,6′-dihydrospiro[chromeno[2,3-c]pyridine-5,4′-[1,3]oxazin]-7-yl)-5-methoxy-2-pyrazinecarboxamide]	55	36
0.8	569000	2.5	COc1ccc(C(=O)Nc2ccc3c(c2)[C@@]2(CCSC(N)=N2)c2cc(C4=CCCOC4)nc(F)c2O3)nc1 [Example 111, N-((5S)-2′-amino-3-(5,6-dihydro-2H-pyran-3-yl)-1-fluoro-5′,6′-dihydrospiro[chromeno[2,3-c]pyridine-5,4′-[1,3]thiazin]-7-yl)-5-methoxy-2-pyridinecarboxamide]	76	58
0.6	341000	–	NC1=N[C@@]2(CCO1)c1cc(NC(=O)c3ccc(Cl)cn3)ccc1Oc1ncc(C3=CCOCC3)cc12 [Example 45, N-((5S)-2′-amino-3-(3,6-dihydro-2H-pyran-4-yl)-5′,6′-dihydrospiro[chromeno[2,3-b]pyridine-5,4′-[1,3]oxazin]-7-yl)-5-chloro-2-pyridinecarboxamide]	27	14
0.6	133000	–	NC1=N[C@@]2(CCS1)c1cc(NC(=O)c3ccc(Cl)cn3)ccc1Oc1c2cc(C2=CCOCC2)nc1F [Example 117, N-((5S)-2′-amino-3-(3,6-dihydro-2H-pyran-4-yl)-1-fluoro-5′,6′-dihydrospiro[chromeno[2,3-c]pyridine-5,4′-[1,3]thiazin]-7-yl)-5-chloro-2-pyridinecarboxamide]	80	70
0.1	400000	1.4	NC1=N[C@@]2(CCO1)c1cc(NC(=O)c3ccc(Cl)cn3)ccc1Oc1c2cc(C2=CCOCC2)nc1F [Example 63, N-((5S)-2′-amino-3-(3,6-dihydro-2H-pyran-4-yl)-1-fluoro-5′,6′-dihydrospiro[chromeno[2,3-c]pyridine-5,4′-[1,3]oxazin]-7-yl)-5-chloro-2-pyridinecarboxamide]	80	75
1.6	107000	–	COc1cnc(C(=O)Nc2ccc3c(c2)[C@@]2(CCOC(N)=N2)c2cc(C4=CCCOC4)cc(F)c2O3)cn1 [Example 106, N-((4S)-2-amino-7′-(5,6-dihydro-2H-pyran-3-yl)-5′-fluoro-5,6-dihydrospiro[1,3-oxazine-4,9′-xanthen]-2′-yl)-5-methoxy-2-pyrazinecarboxamide]	43	16
1.9	–	10	CC(C)(C)C#Cc1cc2c(cn1)Oc1ccc(NC(=O)c3ccc(Cl)cn3)cc1[C@@]21CCOC(N)=N1 [Example 82, N-((5S)-2′-amino-3-(3,3-dimethyl-1-butyn-1-yl)-5′,6′-dihydrospiro[chromeno[2,3-c]pyridine-5,4′-[1,3]oxazin]-7-yl)-5-chloro-2-pyridinecarboxamide]	67	42
1.1	–	1.2	NC1=N[C@@]2(CCO1)c1cc(NC(=O)c3ccc(F)cn3)ccc1Oc1c2cc(-c2ccnc(F)c2)nc1F [Example 97, N-((5S)-2′-amino-1-fluoro-3-(2-fluoro-4-pyridinyl)-5′,6′-dihydrospiro[chromeno[2,3-c]pyridine-5,4′-[1,3]oxazin]-7-yl)-5-fluoro-2-pyridinecarboxamide]	63	44
0.6	–	1	NC1=N[C@@]2(CCS1)c1cc(NC(=O)c3ccc(F)cn3)ccc1Oc1c2cc(C2=CCOCC2)nc1F [Example 116, N-((5S)-2′-amino-3-(3,6-dihydro-2H-pyran-4-yl)-1-fluoro-5′,6′-dihydrospiro[chromeno[2,3-c]pyridine-5,4′-[1,3]thiazin]-7-yl)-5-fluoro-2-pyridinecarboxamide]	73	56
5.6	–	6.5	COc1cnc(C(=O)Nc2ccc3c(c2)[C@@]2(CCOC(N)=N2)c2cc(-c4ccnc(F)c4)cc(F)c2O3)cn1 [Example 95, N-((4S)-2-amino-5′-fluoro-7′-(2-fluoro-4-pyridinyl)-5,6-dihydrospiro[1,3-oxazine-4,9′-xanthen]-2′-yl)-5-methoxy-2-pyrazinecarboxamide]	54	21
3.4	–	2.4	NC1=N[C@@]2(CCO1)c1cc(NC(=O)c3ccc(Cl)cn3)ccc1Oc1c2cc(C2CC2)nc1F [Example 40, N-((5S)-2′-amino-3-cyclopropyl-1-fluoro-5′,6′-dihydrospiro[chromeno[2,3-c]pyridine-5,4′-[1,3]oxazin]-7-yl)-5-chloro-2-pyridinecarboxamide]	75	58
